Several values for one entry are separate records, joined by “and”; a condition that tells them apart may be missing. Equal values may be shown once.
Legend:
L. infantum = assay: Clinical study in dogs infected with L. infantum: IFAT antibody titers; type: in vivo; conditions: Glucantime 100 mg/kg dNMA SC or Fexinidazole 60 mg/kg PO once daily Days 0-27
Experimental: In a clinical study, dogs infected with L. infantum were treated with meglumine antimoniate (GLUCANTIME®, Merial) as a positive control, or FEX (Table 5). Eight blocks of two animals were formed based antibody titers and biological scores. Six dogs in each group were naturally infected by housing them in an endemic area for two years and two dogs in each group were artificially infected by intravenous administration of a known quantity of parasites recovered from the spleen of an infected dog.
The first group (FEX) was compared to the second group, which was treated with 27 mg/kg GLUCANTIME (meglumine antimoniate, or 100 mg/kg of dNMA) “GLU”), over 28 days.
Variables. The Clinical Score is an additive score of various clinical signs (body condition, lymphadenopathy, splenomegaly, appetite, behavior, mucous membrane color, dermatopathology, ocular signs, digestive signs, arthropathy) evaluated before treatment and on Days 7, 14, 21, 28, 57, 184, 219, 254, 282, 310, 345, 400 and 436. The Overall Biological Score is an additive score based on the severity of changes in hematology/chemistry values (creatinine, urine protein/creatinine, Hct, globulin, ALAT), evaluated pretreatment and on Days 28, 57, and 181. The L. infantum immunofluorescent antibody titers (IFAT) were determined from samples collected before treatment and on Days 28, 57, and 181. Finally, quantitative PCR (qPCR) for L. infantum was conducted on spleen aspirates collected before treatment and on Days 28, 57, 142, 184, and 373.

L. donovani = conditions: mice; Wyllie, Sci Transl. Med 4, 119, 2012; cited from earlier work
[1] = Toxicology studies in beagles, 90 days (13 weeks); type: in vivo; conditions: daily doses up to 125 mg/kg/day for 90 days (13 weeks)
From the text: Toxicology summary. In mice and rats, the maximum fexinidazole (FEX) dose after oral administration is 10 g/kg of body weight. […] Finally, as regards PK, labeled FEX and its metabolites were excreted within 3 days in the feces (52-58%) and urine (36-40%).

CSc1ccc(OCc2ncc([N+](=O)[O-])n2C)cc1 [Fexinidazole, fexinidazole]
L. infantum IFAT Antibody Titers (L. infantum; Day 28, individual dogs): 1/80
L. infantum IFAT Antibody Titers (L. infantum; Day 57, individual dogs): 1/640 (2×) and 1/320 and 1/80
L. infantum IFAT Antibody Titers (L. infantum; Day 181, individual dogs): 1/640 (2×) and 1/320 and 1/80
suppression of infection due to L. donovani (L. donovani): able to suppress infection
adverse events (AEs) [1]: no observed adverse events

Reference: patent US9585871B2, “Method for treating and curing leishmaniosis using fexinidazole” (Merial Limited, priority 2013, dated 2017)
